US6500421B1, “In vivo selection of primitive hematopoietic cells” (St. Jude Children's Research Hospital, priority 1999, dated 2002)

Experiments:
[1] = test system: murine myeloid progenitors; assay: In vivo treatment of normal mice; bone marrow cellularity and myeloid progenitor content per femur; details: for number of myeloid progenitors in the marrow / marrow cellularity: ip five consecutive days, 24 hrs after last treatment, TMTX 130 mg/kg, NBMPR-P 20 mg/kg, draflazine 20 mg/kg, alone or combined; for number of myeloid progenitors in the marrow: relative to untreated control mice
Method: FIGS. 3a & 3b show thymidine transport inhibitors sensitize murine progenitors to TMTX in vivo Normal C57B1/6, WBBF1+/+ or B6.C-H1^6/By (HW80) mice were administered TMTX (130 mg/kg), NBMPR-P (20 mg/kg) or draflazine (20 mg/kg) alone, or the combination of TMTX+NBMPR-P or TMTX+draflazine ip for five consecutive days. 24 hrs following the last treatment, mice were sacrificed and bone marrow cellularity and myeloid progenitor content per femur were analyzed relative to untreated mice.
To determine if the antifolate trimetrexate (TMTX), could be used to inhibit hematopoietic progenitor cells which had not been genetically modified to contain and express a mutant dihydrofolate reductase, we treated mice with high doses of TMTX and measured the myeloid progenitor and stem cell content in the bone marrow. Mice were intraperitoneally administered 100 or 130 mg/kg TMTX for five consecutive days. Bone marrow cellularity and progenitor content was examined relative to untreated mice 24 hrs after the final treatment. […] Thus, although differentiated murine hematopoietic cells are highly sensitive to TMTX in vivo, immature myeloid progenitors resist it's cytotoxic effects.
In order to determine whether the combination of TMTX and TTIs will kill murine myeloid progenitors in vivo, normal mice were intraperitoneally administered TMTX (130 mg/kg) together with either NBMPR-5′ monophosphate (NBMPR-P) (20 mg/kg) or draflazine (20 mg/kg) for five consecutive days. […] The myeloid progenitor content in the marrow was also measured following these various treatments. […] Thus, while TMTX alone is insufficient for the killing of myeloid progenitors in vivo, either draflazine or NBMPR-P can be used to sensitize progenitors to TMTX thereby allowing elimination of unmodified cells in vivo.

[2] = test system: murine myeloid progenitors; assay: Defined in vitro liquid culture of unseparated murine bone marrow, myeloid progenitor assay after four days; format: cell-based, mice; details: TMTX 150 nM; for sensitization of progenitor cells to TMTX: TTI at 1.0 μM or 0.1 μM, 0.1 μM or 1 μM thymidine
Method: FIGS. 1a & 1b a show TTIs effectively block nucleoside salvage and potentiate TMTX toxicity at physiological concentrations of thyrnidine. Unseparated bone marrow from normal C57B1/6 or WBBF1+/+ mice were cultured in DMEM plus dialyzed FBS with or without 150 nM TMTX, […] hypoxanthine and 0.1, 1.0 or 10 μM thymidine. In addition, either A) NBMPR or B) draflazine at 0.1 or 1.0 μM were added to the indicated suspension cultures. Progenitors were assayed by a semisolid methylcellulose-based myeloid progenitor assay after four days of suspension culture.
We developed a defined in vitro liquid culture system to determine the mechanism by which murine myeloid progenitors escape killing with TMTX. This system involves the culture of unseparated murine bone marrow in medium supplemented with optimal concentrations of hematopoietic growth factors (IL-3 at 20 ng/ml, human IL-6 at 50 ng/ml, rat SCF at 50 ng/ml), and either undialyzed fetal bovine serum (FBS) or dialyzed FBS at 15% v/v final concentration, that has been depleted of detectable thymidine and hypoxanthine. The progenitor content is determined four days after culture initiation.
The number of progenitors in cultures without TMTX were similar using either dialyzed or undialyzed serum. However, TMTX addition (150 nM) allowed survival of at least 50% of the myeloid progenitors in cultures containing undialyzed serum compared to 5% progenitor survival in cultures containing dialyzed serum.
Thymidine transport inhibitors (TTI) were added to our defined liquid culture system. […] However, supraphysiological thymidine levels (10 μM) were able to overcome the TTI-specific blockage of thymidine import, restoring full progenitor survival.

hematopoietic stem cells = assay: Stem cell kill: marrow of treated C57B1/6J donors transplanted into W/Wv mice, hemoglobin electrophoresis; format: in vivo; details: donors given five daily doses of TMTX at 100 mg/kg/day
Method: C57B1/6 donor mice were administered either 100 mg/kg TMTX, 100 mg/kg TMTX+20 mg/kg NBMPR-P, or 130 mg/kg TMTX+20 mg/kg NBMPR-P ip for five consecutive days. 24 hrs following the last treatment, bone marrow was harvested and transplanted into genetically anemic W/W^V mice. The hemoglobin phenotype of transplanted mnice was determined after 8 weeks.
The above experiments indicate that the combination of an antifolate (TMTX) and TTIs effectively eliminates unmodified myeloid progenitors. Although selection at the progenitor level should be useful in a number of circumstances, selection at the level of repopulating stem cells should give the most durable and stable selection of vectormodified cells. To test if the combination of TMTX and NBMPR-P could be used to kill unmodified stem cells, C57B1/6J mice were treated with various drug combinations (intraperitoneal injections at the following doses: trimetrexate at 130 mg/kg, NBMPR-P at 20 mg/kg, and draflazine at 20 mg/kg) and then used as donors for bone marrow transplantation. Stem cell viability was measured by hemoglobin electrophoresis patterns in W/Wv mice used as transplant recipients. […]
Repopulation can be monitored by hemoglobin electrophoresis, which can distinguish the pattern obtained from C57B1/6J erthryocytes versus the W/Wv background.

[3] = test system: human myeloid progenitor cells; assay: L22Y-DHFR or neo transduced human peripheral blood progenitors plated in semisolid media with TMTX; format: cell-based; details: mobilized human peripheral blood progenitors, L22Y-DHFR versus neo transduced, TMTX 0 to 500 ng/ml in semisolid media
Method: Peripheral blood cells collected following chemotherapy and growth factor mobilization were prestimulated for 48 hrs with IL-3, IL-6 and SCF, followed by coculture on irradiated amphotropic retroviral producers (L22Y-DHFR or neo) for an additional 48 hrs. Nonadherent hematopoietic cells were then assayed for drug resistant progenitors by addition of increasing concentrations of TMTX to the semisolid methylcellulose cultures.
Human progenitor cells were transduced as follows. Mononuclear cells were isolated by passing peripheral blood cells over a Ficoll gradient. These cells were cultured at 5×10^5 cells/ml in the presence of human IL-3 at 20 ng/ml, human IL-6 at 50 ng/ml, and human SCF at 50 ng/ml and 15% v/v fetal calf serum. After 48 hours, these cells were placed on plates containing an irradiated confluent layer of fibroblasts that were producing the amphotropic L22Y vector. The cytokine concentrations during this coculture period were identical to that used during the previous prestimulation phase. Protamine sulfate was also included during the coculture phase at a concentration of 4 μg/ml. After 48 hours of coculture, cells were washed and plated in semisolid media obtained from Stem Cell Technologies according to manufacturers specifications. This media was pretreated with thymidine phosphorylase at 1 unit/3 ml of media. […]

[4] = test system: vector-expressing myeloid progenitor cells; details: mice, human DHFR variant (Zhao et al. 1994); cited from earlier work
[5] = test system: human myeloid progenitor cells; details: in vitro, MTX-containing cultures, human DHFR variant (Flasshove et al. 1995); cited from earlier work
[6] = test system: human CD34 immunoselected progenitors; assay: Human CD34-enriched peripheral blood progenitors in defined liquid culture; format: cell-based; details: 1.0 μM draflazine, 150 nM trimetrexate, 100 μM hypoxanthine, thymidine 0 to 1.0 micromolar, dialyzed serum
Method: CD34-enriched, mobilized peripheral blood progenitors were assayed in the defined suspension culture system, as described for murine cells in the legend to FIG. 1. Two separate human samples were examined, and progenitor survival is represented relative to progenitors cultured without TMTX.
We examined the ability of draflazine to potentiate TMTX toxicity of human CD34 immunoselected progenitors in our defined liquid culture system comprising 15% dialyzed fetal calf serum, 20 ng/ml human IL-3, 50 ng/ml human IL-6, and 50 ng/ml human SCF in the presence-or absence of 1.0 μM draflazine, 100 μM hypoxanthine, 150 nM trimetrexate, and varying concentrations of thymidine ranging from 0 to 1.0 micromolar. […] CD34 selection was done using a Ceprate cell column (CellPro) according to the manufacturers instructions.

COc1cc(NCc2ccc3nc(N)nc(N)c3c2C)cc(OC)c1OC [TMTX, trimetrexate]
number of myeloid progenitors and stem cells per femur ([1]; TMTX 100 or 130 mg/kg ip for five consecutive days, 24 hrs after final treatment): remained the same in all groups of mice | bone marrow cellularity ([1]; TMTX 100 or 130 mg/kg ip for five consecutive days, 24 hrs after final treatment, relative to untreated mice): severe marrow hypoplasia | number of myeloid progenitors in the marrow [1]: modest increase | rescue of myeloid progenitors from TMTX toxicity ([2]; dialyzed serum treated with thymidine phosphorylase, hypoxanthine 100 μM alone added): did not rescue myeloid progenitors from TMTX toxicity | myeloid progenitor survival ([2]; dialyzed serum, both thymidine and hypoxanthine added): fully restored myeloid progenitor survival | progenitor survival ([2]; dialyzed serum, four days): 5% | restoration of TMTX resistance of progenitors ([2]; dialyzed serum, thymidine 1.0 μM alone added): did not restore TMTX resistance | survival of myeloid progenitors ([2]; undialyzed serum, four days): at least 50% | hematopoietic repopulating ability of donor marrow (hematopoietic stem cells): failed to adversely effect | TMTX resistance of L22Y-DHFR transduced progenitors [3]: increased TMTX-resistance relative to control (neo) transduced progenitor cells

O=[N+]([O-])c1ccc(CSc2ncnc3c2ncn3[C@@H]2O[C@H](COP(=O)(O)O)[C@@H](O)[C@H]2O)cc1 [NBMPR-P, NBMPR-5′ monophosphate]
marrow cellularity [1]: neither TTI alone had any measurable effect | number of myeloid progenitors in the marrow [1]: no effect on progenitor survival

O=[N+]([O-])c1ccc(CSc2ncnc3c2ncn3[C@@H]2O[C@H](CO)[C@@H](O)[C@H]2O)cc1 [NBMPR, nitrobenzylmercaptopurine riboside]
sensitization of progenitor cells to TMTX [2]: effectively sensitized progenitor cells to TMTX

CN(Cc1cnc2nc(N)nc(N)c2n1)c1ccc(C(=O)N[C@@H](CCC(=O)O)C(=O)O)cc1 [MTX, methotrexate]
increase in vector-expressing myeloid progenitor cells following MTX treatment [4]: 2 fold | amplification of vector-expressing progenitor cells [5]: amplified two-fold

NC(=O)C1CN(CCCCC(c2ccc(F)cc2)c2ccc(F)cc2)CCN1CC(=O)Nc1c(Cl)cc(N)cc1Cl (stereo not shown) [draflazine]
marrow cellularity [1]: neither TTI alone had any measurable effect | number of myeloid progenitors in the marrow [1]: no effect on progenitor survival | sensitization of progenitor cells to TMTX [2]: effectively sensitized progenitor cells to TMTX | potentiation of TMTX toxicity [6]: effectively potentiated TMTX toxicity
